According to US9492462B2, “Composition for elastin production” (HUMAN MATRIX SCIENCES, LLC, priority 2007, dated 2016):

Columns and labels:
Assay type in all cases: cell-based, human
normal skin fibroblasts [1] = assay: Elastin immunostaining in 7-day cultures of normal skin fibroblasts; conditions: for deposition of elastin (anti-elastin immunostaining): 50 ng/ml IGF-I, 50 nM aldosterone, alone or together, vs untreated control
Method: (§1) Biological effects of aldosterone and spironolactone were tested in cultures of dermal fibroblasts derived from normal skin, stretch-marked skin and dermal scars derived from Caucasian females, of different ages ranging from 30-38 years old. All fibroblasts were originally isolated by allowing them to migrate out of skin explants and then passaged by trypsinization and maintained in alpha-minimum essential medium supplemented with 20 mM Hepes, 1% antibiotics and antimycotics, 1% L-Glutamate and 2% fetal bovine serum (FBS) as previously described Hinek et al. “Impaired elastic-fiber assembly by fibroblasts from patients with either Morquio B disease or infantile GM1-gangliosidosis is linked to deficiency in the 67-kD spliced variant of beta-galactosidase.” Am J Hum Genet. 2000 July; 67(1):23-36 hereby incorporated by reference in its entirety. In all experiments, consecutive passages 3-4 were tested. Cells were densely plated (50×10^5 cells/dish) to reach confluency and then cultured for 7 days in the presence and absence of different concentrations of (10 nM-1 μM) aldosterone, 2 μM spironolactone, alone or in combinations with other reagents, as described in figure legends.
7-day-old cultures of fibroblasts, which produce abundant ECM, were assessed. All cultures were fixed in cold 100% methanol at −20° C. for 30 min, and then incubated for 1 hour with 2 μg/ml of polyclonal antibody to tropoelastin. Cultures were then incubated for an additional hour with appropriate fluorescein-conjugated secondary antibody (GAR-FITC). Nuclei were counterstained with propidium iodide. Morphometric analysis of five separate cultures in each experimental group, immunostained with antibodies recognizing extracellular matrix components, was performed using a computerized video analysis system (Image-Pro Plus software 3.0, Media Cybernetics, Silver Spring, Md.) as described previously in Hinek et al. “Decreased elastin deposition and high proliferation of fibroblasts from Costello syndrome are related to functional deficiency in the 67-kD elastin-binding protein.” Am J Hum Genet. 2000 March; 66(3):859-72 and Hinek and Wilson, “Impaired elastogenesis in Hurler disease: dermatan sulfate accumulation linked to deficiency in elastin-binding protein and elastic fiber assembly.” Am J Pathol. 2000 March; 156(3):925-38 both of which are hereby incorporated by reference in their entireties.

normal skin fibroblasts [2] = assay: [3H]-valine incorporation into insoluble elastin, normal skin fibroblasts; conditions: for mature, insoluble elastin concentration ([3H]-valine incorporation): 50 ng/ml IGF-I, 50 nM aldosterone, alone or in combination
Method: as §1
Quintuplicate, 4 day-old cultures of dermal fibroblasts maintained in the presence and absence of indicated reagents were additionally exposed for the 3 following days to 20 μCi [^3H]-valine. At the end of incubation period, the cell layers were extensively washed with PBS, scraped and boiled in 500 μl of 0.1 N NaOH for 30 minutes, to solubilize all matrix components except elastin. The resulting pellets containing the insoluble elastin were then solubilized by boiling in 200 μl of 5.7 N HCl for 1 hour, and the aliquots were mixed in scintillation fluid and counted. Aliquots taken from each culture were also used for DNA determination, according to Rodems et al., using the DNeasy Tissue System from Qiagen. Final results reflecting amounts of metabolically labeled insoluble elastin in individual cultures were normalized per their DNA content, and expressed as CPM/1 μg DNA.

[3] = tested on: skin biopsy explants derived from abdominal dermal scar; assay: Organ culture of dermal scar explants, Movat's pentachrome stain
Method: In order to further test whether aldosterone and spironolactone would penetrate into skin tissue and affect elastogenesis, fragments of normal skin, stretch-marked skin and dermal scars were tested in organ culture system. Skin fragments were cut into multiple 1 mm^2 pieces and placed on top of metal grids immersed in culture medium containing 5% FBS and maintained for 10 days in the presence and absence of and then cultured for 7 days in the presence of 50 nM aldosterone, and 2 μM spironolactone, alone or in combinations, as described in figure legends. The media were changed every second day.
All organ cultures were fixed in 1% buffered formalin and their transversal serial histological sections were stained with Movat's pentachrome as previously described in Hinek et al. “Proteolytic digest derived from bovine Ligamentum Nuchae stimulates deposition of new elastin-enriched matrix in cultures and transplants of human dermal fibroblasts” J Dermatol Sci. September 2005; 39(3):155-66 hereby incorporated by reference in it's entirety. Morphometric analysis was performed as described above. In each analyzed group (three explants from each patient) low-power fields (1 mm^2) of 20 serial sections stained with Movat's pentachrome were analyzed and all structures stained black (elastic fibers) were counted.

collagen type I mRNA = assay: Collagen type I mRNA level by one-step RT-PCR in normal skin fibroblasts; conditions: 24 h; 50 nM and 1 μM aldosterone, alone or with 2 μM spironolactone
Method: (§2) Fibroblasts were cultured to confluency in medium with 2% FBS and then in serum-free medium for 24 hours. The medium was changed again and cells were incubated for the next 24 hours in the presence and absence of in the presence of 50 nM and 1 μM aldosterone, and 2 μM spironolactone, alone or in combinations, as described in figure legend. At the end of the incubation period total RNA was extracted using the RNeasy Mini Kit, according to manufacturer's instructions. Steady-state levels of elastin mRNA were then analyzed by One-Step RT-PCR analysis. Briefly, 1 μg of total RNA was added to each one step RT-PCR (Qiagen One-Step RT-PCR Kit), and reactions were set up according to manufacturer's instructions in a total volume of 25 μl. The reverse transcription step was performed for elastin, and GAPDH reactions at 50° C. for 30 minutes, followed by 15 minutes at 95° C. The elastin PCR reaction (sense primer: [NT] ID NO: 1), antisense primer: [NT] ID NO: 2); designed to produce a 255 bp product) was performed under the following conditions: 25 cycles at 94° C. denaturation for 20 s, 63° C. annealing for 20 s, 72° C. extension for 1 min; 1 cycle at 72° C. final extension for 10 min. The collagen Type I PCR reaction (sense [NT] ID NO: 3), antisense primer: [NT] […]

elastin mRNA = assay: Elastin mRNA level by one-step RT-PCR in normal skin fibroblasts; conditions: 24 h; 50 nM and 1 μM aldosterone, alone or with 2 μM spironolactone
Method: as §2

[4] = tested on: fibroblasts derived from patient with stretch marks; assay: Elastin immunostaining in 7-day cultures of fibroblasts from a patient with stretch marks; conditions: 50 nM aldosterone alone or with 2 μM spironolactone; vs untreated control or spironolactone only
Method: Biological effects of aldosterone and spironolactone were tested in cultures of dermal fibroblasts derived from normal skin, stretch-marked skin and dermal scars derived from Caucasian females, of different ages ranging from 30-38 years old. All fibroblasts were originally isolated by allowing them to migrate out of skin explants and then passaged by trypsinization and maintained in alpha-minimum essential medium supplemented with 20 mM Hepes, 1% antibiotics and antimycotics, 1% L-Glutamate and 2% fetal bovine serum (FBS) as previously described Hinek et al. “Impaired elastic-fiber assembly by fibroblasts from patients with either Morquio B disease or infantile GM1-gangliosidosis is linked to deficiency in the 67-kD spliced variant of beta-galactosidase.” Am J Hum Genet. 2000 July; 67(1):23-36 hereby incorporated by reference in its entirety. In all experiments, consecutive passages 3-4 were tested. Cells were densely plated (50×10^5 cells/dish) to reach confluency and then cultured for 7 days in the presence and absence of different concentrations of (10 nM-1 μM) aldosterone, 2 μM spironolactone, alone or in combinations with other reagents, as described in figure legends. 7-day-old cultures of fibroblasts, which produce abundant ECM, were assessed. […]

[5] = tested on: fibroblasts derived from patient with stretch marks; assay: [3H]-valine incorporation into insoluble elastin, stretch-mark fibroblasts; conditions: 50 nM aldosterone alone or with 2 μM spironolactone
Method: Biological effects of aldosterone and spironolactone were tested in cultures of dermal fibroblasts derived from normal skin, stretch-marked skin and dermal scars derived from Caucasian females, of different ages ranging from 30-38 years old. All fibroblasts were originally isolated by allowing them to migrate out of skin explants and then passaged by trypsinization and maintained in alpha-minimum essential medium supplemented with 20 mM Hepes, 1% antibiotics and antimycotics, 1% L-Glutamate and 2% fetal bovine serum (FBS) as previously described Hinek et al. “Impaired elastic-fiber assembly by fibroblasts from patients with either Morquio B disease or infantile GM1-gangliosidosis is linked to deficiency in the 67-kD spliced variant of beta-galactosidase.” Am J Hum Genet. […] In all experiments, consecutive passages 3-4 were tested. […] The resulting pellets containing the insoluble elastin were then solubilized by boiling in 200 μl of 5.7 N HCl for 1 hour, and the aliquots were mixed in scintillation fluid and counted. […] Final results reflecting amounts of metabolically labeled insoluble elastin in individual cultures were normalized per their DNA content, and expressed as CPM/1 μg DNA.

[6] = tested on: fibroblasts derived from dermal scar tissue; assay: Elastin immunostaining in 7-day cultures of dermal scar fibroblasts
Method: as §1
7-day-old cultures of fibroblasts, which produce abundant ECM, were assessed. All cultures were fixed in cold 100% methanol at −20° C. for 30 min, and then incubated for 1 hour with 2 μg/ml of polyclonal antibody to tropoelastin. Cultures were then incubated for an additional hour with appropriate fluorescein-conjugated secondary antibody (GAR-FITC). Nuclei were counterstained with propidium iodide. Morphometric analysis of five separate cultures in each experimental group, immunostained with antibodies recognizing extracellular matrix components, was performed using a computerized video analysis system (Image-Pro Plus software 3.0, Media Cybernetics, Silver Spring, Md.) as described previously in Hinek et al. “Decreased elastin deposition and high proliferation of fibroblasts from Costello syndrome are related to functional deficiency in the 67-kD elastin-binding protein.” Am J Hum Genet. […]

[7] = tested on: fibroblasts derived from dermal scar tissue; assay: [3H]-valine incorporation into insoluble elastin, dermal scar fibroblasts
Method: Biological effects of aldosterone and spironolactone were tested in cultures of dermal fibroblasts derived from normal skin, stretch-marked skin and dermal scars derived from Caucasian females, of different ages ranging from 30-38 years old. All fibroblasts were originally isolated by allowing them to migrate out of skin explants and then passaged by trypsinization and maintained in alpha-minimum essential medium supplemented with 20 mM Hepes, 1% antibiotics and antimycotics, 1% L-Glutamate and 2% fetal bovine serum (FBS) as previously described Hinek et al. “Impaired elastic-fiber assembly by fibroblasts from patients with either Morquio B disease or infantile GM1-gangliosidosis is linked to deficiency in the 67-kD spliced variant of beta-galactosidase.” Am J Hum Genet. 2000 July; 67(1):23-36 hereby incorporated by reference in its entirety. […]
Quintuplicate, 4 day-old cultures of dermal fibroblasts maintained in the presence and absence of indicated reagents were additionally exposed for the 3 following days to 20 μCi [^3H]-valine. […] The resulting pellets containing the insoluble elastin were then solubilized by boiling in 200 μl of 5.7 N HCl for 1 hour, and the aliquots were mixed in scintillation fluid and counted. […] Final results reflecting amounts of metabolically labeled insoluble elastin in individual cultures were normalized per their DNA content, and expressed as CPM/1 μg DNA.

[8] = tested on: skin biopsy explants derived from normal abdominal skin; assay: Organ culture of normal skin explants, Movat's pentachrome stain; conditions: 10 days, 50 nM aldosterone alone or with 2 μM spironolactone
Method: (§3) In order to further test whether aldosterone and spironolactone would penetrate into skin tissue and affect elastogenesis, fragments of normal skin, stretch-marked skin and dermal scars were tested in organ culture system. Skin fragments were cut into multiple 1 mm^2 pieces and placed on top of metal grids immersed in culture medium containing 5% FBS and maintained for 10 days in the presence and absence of and then cultured for 7 days in the presence of 50 nM aldosterone, and 2 μM spironolactone, alone or in combinations, as described in figure legends. The media were changed every second day. All organ cultures were fixed in 1% buffered formalin and their transversal serial histological sections were stained with Movat's pentachrome as previously described in Hinek et al. “Proteolytic digest derived from bovine Ligamentum Nuchae stimulates deposition of new elastin-enriched matrix in cultures and transplants of human dermal fibroblasts” J Dermatol Sci. September 2005; 39(3):155-66 hereby incorporated by reference in it's entirety. Morphometric analysis was performed as described above. In each analyzed group (three explants from each patient) low-power fields (1 mm^2) of 20 serial sections stained with Movat's pentachrome were analyzed and all structures stained black (elastic fibers) were counted.

[9] = tested on: skin biopsy explants from abdominal stretch marks; assay: Organ culture of stretch-marked skin explants, Movat's pentachrome stain; conditions: 10 days, 50 nM aldosterone alone or with 2 μM spironolactone
Method: as §3

[10] = FIG. 11, 50 nM aldosterone alone or with 2 μM spironolactone, vs untreated control

Compound: CC(C)(C)c1cc(C=C(C#N)C#N)cc(Br)c1O [AG1024]
- effect on aldosterone-enhanced deposition of elastin (immunostaining) (normal skin fibroblasts [1]; 50 nM aldosterone with 1 μg/ml αIGF-IR or 5 μM AG1024): inhibited
- effect on IGF-I-enhanced deposition of elastin (immunostaining) (normal skin fibroblasts [1]; 50 ng/ml IGF-I with 1 μg/ml αIGF-IR or 5 μM AG1024): inhibited
- mature elastin concentration in the presence of IGF-I or aldosterone ([3H]-valine incorporation) (normal skin fibroblasts [2]; 1 μg/ml αIGF-IR or 5 μM AG1024 with 50 ng/ml IGF-I or 50 nM aldosterone): maintained at or below control levels
- elastin deposition in AG1024-treated explants (Movat's pentachrome) ([3]; 5 μM AG1024 alone, with 50 nM aldosterone, or with aldosterone and 2 μM spironolactone): no net increase in elastin deposition

Compound: C[C@]12CCC(=O)C=C1CC[C@@H]1[C@@H]2[C@@H](O)C[C@]2(C=O)[C@@H](C(=O)CO)CC[C@@H]12 [aldosterone]
- concentration of elastin (anti-elastin immunostaining) (normal skin fibroblasts [1]; 7-day cultures, 10 nM, 50 nM, 1 μM aldosterone vs untreated): increased in an aldosterone concentration specific manner
- deposition of elastin (anti-elastin immunostaining) (normal skin fibroblasts [1]; 7-day cultures): enhanced deposition of elastin
- collagen type I mRNA (relative to GAPDH mRNA) (collagen type I mRNA): net increase of collagen type I mRNA
- elastin mRNA (relative to GAPDH mRNA) (elastin mRNA): increases in an aldosterone concentration dependent manner
- mature, insoluble elastin concentration ([3H]-valine incorporation) (normal skin fibroblasts [2]): improved mature elastin concentrations over untreated control
- elastin stained by anti-elastin antibodies [4]: increase in elastin
- concentration of mature, insoluble elastin ([3H]-valine incorporation) [5]: increased
- elastin stained by anti-elastin antibodies ([6]; 50 nM aldosterone alone or with 2 μM spironolactone, vs untreated control or spironolactone only): increase in elastin
- deposition of insoluble mature elastin ([3H]-valine incorporation) ([7]; 50 nM aldosterone alone or with 2 μM spironolactone): enhanced
- elastic fibers / deposition of elastin (Movat's pentachrome) [8]: thicker and longer elastic fibers
- elastic fibers / deposition of elastin (Movat's pentachrome) [9]: thicker and longer elastic fibers
- deposition of collagen (yellow, Movat's pentachrome) [3, 10]: increases in deposition
- deposition of elastin (black, Movat's pentachrome) [3, 10]: increases in deposition
- elastic fibers (Movat's pentachrome) ([3]; superficial and deep portion of scar, 10 days, 50 nM aldosterone alone or with 2 μM spironolactone): numerous elastic fibers

Compound: CC(=O)S[C@@H]1CC2=CC(=O)CC[C@]2(C)[C@H]2CC[C@@]3(C)[C@@H](CC[C@@]34CCC(=O)O4)[C@H]12 [spironolactone]
- elastin deposition in cells treated with increasing concentrations of aldosterone (normal skin fibroblasts [1]; 2 μM spironolactone added to 10 nM, 50 nM, 1 μM aldosterone, 7-day cultures): did not alter elastin deposition

Compound: IGF-I: ligand of insulin growth factor receptor I, added at 10-100 ng/ml
- deposition of elastin (anti-elastin immunostaining) (normal skin fibroblasts [1]; 7-day cultures): enhances the deposition of elastin
- mature, insoluble elastin concentration ([3H]-valine incorporation) (normal skin fibroblasts [2]): improved mature elastin concentrations over untreated control
- elastin deposition (anti-elastin immunostaining) ([6]; 10 ng/ml IGF-I vs untreated control): increase in elastin depositions
- elastin deposition (anti-elastin immunostaining) ([6]; 100 ng/ml IGF-I vs untreated control): even greater elastin deposition
- deposition of mature, insoluble elastin ([3H]-valine incorporation) ([7]; 10 and 100 ng/ml IGF-I vs untreated control): dose dependent increase
